# Legend:
# [1] = system: Trica-SKR1; assay: Aequorin-luminescence assay, CHO-WTA11 cells (Gα16) transfected with Trica-SKR1; type: cell-based, Tribolium castaneum; conditions: aequorin bioluminescence
# Method: (§1) General pharmacological studies were performed in Chinese Hamster Ovary (CHO) WTA11 cells, stably coexpressing apoaequorin, a zeocin resistance gene and the promiscuous Gα16, which couples most agonist-induced GPCRs to the phospholipase C and Ca^2+ pathway irrespective of their natural signaling cascade. CHO-PAM28 cells stably expressing apoaequorin and a puromycin resistance gene but not Gα16 and HEK293T cells (Invitrogen) were used to determine possible effects on Ca^2+ and/or cAMP second messenger systems, respectively. All cell lines were cultured in Dulbecco’s Modified Eagles Medium nutrient mixture F12-Ham (DMEM/F12; Invitrogen) supplemented with 1% penicillin/streptomycin (10000 units/ml penicillin and 10 mg/ml streptomycin in 0.9% NaCl; Invitrogen) to prevent bacterial contamination of gram-positive and gram-negative bacteria. In CHO-WTA11 culture medium 250 μg/ml zeocin (Invitrogen) was added as a selection marker, while CHO-PAM28 culture medium was supplemented with 5 μg/ml puromycin to select cells stably expressing apoaequorin. All cell culture media were supplemented with 10% fetal bovine serum (inactivated at […]; Sigma-Aldrich).
# (§2) Cells were cultured in vitro as a monolayer at 37°C with a constant supply of 5% CO2 and were subcultivated twice a week. Transfections of cells were performed in T75 flasks at 60–80% confluency. Transfection reagent for CHO cells was prepared by combining 3.75 ml Opti-MEM I (Invitrogen), 7.5 μg plasmid DNA and 18.75 μl of Plus Reagent (Invitrogen). After gently mixing and 5 min incubation at room temperature 45 μl of Lipofectamine LTX was added to the mixture. This transfection medium was incubated for 30 min at room temperature and added dropwise to the cells, supplemented with 3 ml of fresh culture medium. HEK 293T cells were cotransfected with a receptor construct (6 μg) and CRE-luciferase reporter construct (3 μg), consisting of the open reading frame of the luciferase gene, downstream of a multimerized cAMP-response-element (CRE) and promoter. After transfection, cells were grown overnight before an additional 20 ml of culture medium was supplemented. Cells were again incubated overnight for a final growth phase before luminescence screens were performed.
# (§3) The aequorin luminescence assay was used to measure Ca^2+ signaling in CHO cell lines. Cells were detached using phosphate buffered saline (PBS) containing 0.2% EDTA and collected in 10 ml of DMEM/F-12 (without phenol red, with L-glutamine and 10 mM HEPES; Gibco). The viable cells were quantified using a NucleoCounter NC-100 (Chemometic). Cells were pelleted by 4 min centrifugation at 800 rpm at room temperature and resuspended in DMEM/BSA (DMEM/F-12 without phenol red, with L-glutamine and 10 mM HEPES, 0.1% bovine serum albumin) at a concentration of 5×10^6 cells/ml. Cells were then shielded from light and Coelenterazine H (Invitrogen) was added at a final concentration of 5 μM. Cells were gently shaken at room temperature for 4 h under dark conditions, allowing the aequorin holoenzyme to be reconstituted. After a 10-fold dilution in DMEM/BSA, cells were incubated another 30 min under the same conditions. Pharmacological ligands were dissolved in DMEM/BSA and 50 μl of ligand was added to wells of a 96-well plate. Wells containing 50 μl of DMEM/BSA were used as a negative control, while wells containing 1 μM of ATP served as positive control. Incubated cells were added to the wells of the 96-well plate and light emission was measured for 30 s using a Mithras LB940 (Berthold Technologies). After 30 s Triton X-100 (0.2% in DMEM/BSA) was added, lysing the cells and thus serving as an internal reference. Light emission was measured for an additional 8 s after Triton X-100 was introduced in the wells. Light emission from each well was calculated relative to the total response (ligand+Triton X-100) using the output file of Mikrowin2000 software (Mikrotek). Further analysis was done in Graphpad Prism 5.
# [2] = system: Trica-SKR2; assay: Aequorin-luminescence assay, CHO-WTA11 cells (Gα16) transfected with Trica-SKR2; type: cell-based, Tribolium castaneum; conditions: aequorin bioluminescence
# Method: as §1, §2, §3
# [3] = system: Trica-SKR2; assay: Aequorin-luminescence assay, CHO-PAM28 cells (no Gα16) transfected with Trica-SKR2; type: cell-based, Tribolium castaneum; conditions: CHO-PAM28 cells without Gα16; aequorin bioluminescence (Ca2+); three independent measurements in duplicate; read-out: EC50 for receptor activation in CHO-PAM28 cells, Trica-SKR2
# Method: (§4) General pharmacological studies were performed in Chinese Hamster Ovary (CHO) WTA11 cells, stably coexpressing apoaequorin, a zeocin resistance gene and the promiscuous Gα16, which couples most agonist-induced GPCRs to the phospholipase C and Ca^2+ pathway irrespective of their natural signaling cascade. CHO-PAM28 cells stably expressing apoaequorin and a puromycin resistance gene but not Gα16 and HEK293T cells (Invitrogen) were used to determine possible effects on Ca^2+ and/or cAMP second messenger systems, respectively. […]
# (§5) Cells were cultured in vitro as a monolayer at 37°C with a constant supply of 5% CO2 and were subcultivated twice a week. […] HEK 293T cells were cotransfected with a receptor construct (6 μg) and CRE-luciferase reporter construct (3 μg), consisting of the open reading frame of the luciferase gene, downstream of a multimerized cAMP-response-element (CRE) and promoter. […] Cells were again incubated overnight for a final growth phase before luminescence screens were performed.
# (§6) The aequorin luminescence assay was used to measure Ca^2+ signaling in CHO cell lines. […] The viable cells were quantified using a NucleoCounter NC-100 (Chemometic). […] Incubated cells were added to the wells of the 96-well plate and light emission was measured for 30 s using a Mithras LB940 (Berthold Technologies). […]
# [4] = system: Trica-SKR1; assay: Aequorin-luminescence assay, CHO-PAM28 cells (no Gα16) transfected with Trica-SKR1; type: cell-based, Tribolium castaneum; conditions: CHO-PAM28 cells without Gα16; aequorin bioluminescence (Ca2+); three independent measurements in duplicate; read-out: EC50 for receptor activation in CHO-PAM28 cells, Trica-SKR1
# Method: as §4, §5, §6
# [5] = system: HEK293T cells transfected with empty pcDNA3.1/V5-His-TOPO TA expression vector; assay: CRE-luciferase reporter-gene assay, HEK293T cells transfected with empty expression vector; type: cell-based; conditions: CRE-luciferase bioluminescence
# Method: as §4, §5
# (§7) The luciferase reporter-gene assay was used to quantify positive or negative coupling of the receptor to cAMP in HEK293T cells. Cotransfected HEK293T cells were detached and the viable cells were quantified using the NucleoCounter NC-100 (Chemometic) as described for CHO cells. […] Data were analyzed as described for CHO cells.
# [6] = system: Trica-SKR1; assay: CRE-luciferase reporter-gene assay (cAMP), HEK293T cells transfected with Trica-SKR1; type: cell-based, Tribolium castaneum; conditions: HEK293T cells cotransfected with CRE-luciferase; 200 μM IBMX; 3–4 h at 37°C; six independent measurements in duplicate; read-out: EC50, luciferase bioluminescence (cAMP), Trica-SKR1
# Method: as §4, §5, §7
# [7] = system: CHO-PAM28 cells transfected with empty pcDNA3.1/V5-His-TOPO TA expression vector; assay: Aequorin-luminescence assay, CHO-PAM28 cells transfected with empty expression vector; type: cell-based, Chinese Hamster; conditions: aequorin bioluminescence
# Method: as §4, §5, §6
# [8] = system: Trica-SKR2; assay: CRE-luciferase reporter-gene assay (cAMP), HEK293T cells transfected with Trica-SKR2; type: cell-based, Tribolium castaneum; conditions: HEK293T cells cotransfected with CRE-luciferase; 200 μM IBMX; 3–4 h at 37°C; three independent measurements in duplicate; read-out: EC50, luciferase bioluminescence (cAMP), Trica-SKR2
# Method: as §4, §5, §7
# [9] = peptide at 1 μM, relative to sTrica-SK(5–13) at 1 μM = 100%, at least three biological repeats, each in duplicate
substance,measurement,setting,value
"FDDY(SO3H)GHMRFa [sTrica-SK(5–13), sulfated C-terminal fragment of T. castaneum SK comprising amino acids 5–13, reference compound]","concentration at which maximal response was attained, Trica-SKR1",[1],100 nM
same,EC50,"[1]; 1 fM to 1 μM, ± 95% confidence interval, three independent measurements in duplicate",0.0995 ± 0.028 nM
same,% Trica-SKR1 (relative activation),[1]; [9],100.0%
same,"concentration at which maximal response was attained, Trica-SKR2",[2],100 nM
same,EC50,"[2]; 1 fM to 1 μM, three independent measurements in duplicate",0.524 ± 0.2 nM
same,% Trica-SKR2 (relative activation),[2]; [9],100.0%
same,EC50,[3],1.61 ± 0.45 nM
same,EC50,[4],0.0585 ± 0.024 nM
same,signal in empty-vector transfected HEK293T cells,[5],no signal was observed
same,EC50,[6],0.0049 ± 0.0042 nM
same,signal in empty-vector transfected CHO-PAM28 cells,[7],no signal was observed
same,EC50,[8],1.4 ± 0.3 nM
